Like-named read-outs stand apart in the source and are kept apart here.
Columns and labels:
[1] = 24 volunteers, 0.078 mg/kg CBD + […] THC, cited from earlier work
[2] = Whole-blood pharmacokinetics of CBD and THC after single oral dose of Cannabis sativa extract; conditions: for CBD levels in whole blood: range of levels; for concentration at 0.5 h / concentration at 1 h / concentration at 2 h / concentration at 4 h / concentration at 6 h / concentration at 24 h / AUC(0-t) / Cmax / MRT / Tmax / CL / Vd: whole blood; for concentration at 0.5 h / concentration at 1 h / concentration at 2 h / concentration at 4 h / concentration at 6 h / concentration at 24 h: oral; for AUC(0-t): AUC0–24, whole blood
[3] = Brain pharmacokinetics of CBD and THC after single oral dose of Cannabis sativa extract; conditions: for mean concentration over time: Table 7; for AUC(0-t): AUC0–24, brain
[4] = mice; oral CBD 120 mg/kg in Cremophor; cited from earlier work
[5] = 12 healthy volunteers; chocolate cookies with 0.57 mg/kg CBD + 0.28 mg/kg THC; after 1.5–3 h; cited from earlier work
[6] = rats; oral CBD 120 mg/kg in Cremophor; cited from earlier work
[7] = cited from earlier work
[8] = 1 h after gelatin capsules with extract
[9] = male, Wistar, rat, 30 mg/kg, Mean Concentration ± SD, blood, Rapae oleum, single oral dose of extract 30 mg/kg
[10] = male, Wistar, rat, 30 mg/kg, Mean Concentration, blood, Cremophor, single oral dose of extract 30 mg/kg
[11] = male, Wistar, rat, 30 mg/kg, mean concentration over time, Blood/Cremophor, single oral dose of extract 30 mg/kg, Table 7
[12] = male, Wistar, rat, 30 mg/kg, mean concentration over time, Blood/Rapae Oleum, single oral dose of extract 30 mg/kg, Table 7
[13] = male, Wistar, rat, po, 30 mg/kg, Cremophor, single oral dose of extract 30 mg/kg
[14] = male, Wistar, rat, po, 30 mg/kg, Rapae oleum, single oral dose of extract 30 mg/kg
[15] = Cremophor, single oral dose of extract 30 mg/kg
[16] = Rapae oleum, single oral dose of extract 30 mg/kg
[17] = male, Wistar, rat, brain, po, 30 mg/kg, Cremophor, single oral dose of extract 30 mg/kg
[18] = male, Wistar, rat, brain, po, 30 mg/kg, Rapae oleum, single oral dose of extract 30 mg/kg

SMILES: C=C(C)[C@@H]1CCC(C)=C[C@H]1c1c(O)cc(CCCCC)cc1O [CBD, cannabidiol]
- levels in whole blood (average) [1, 8]: 0.93 ng/mL
- levels in whole blood (range) [1, 8]: 0.3 to 2.6 ng/mL
- time detectable after administration ([1]; gelatin capsules with extract): 3 to 4 h
- CBD levels in whole blood ([2]; Cremophor): 1.43 to 231.43 ng/mL
- concentration at 0.5 h [2, 9]: 26.9 ± 21.5 ng/g
- concentration at 1 h [2, 9]: 107 ± 51 ng/g
- concentration at 2 h [2, 9]: 334 ± 139 ng/g
- concentration at 4 h [2, 9]: 154 ± 146 ng/g
- concentration at 6 h [2, 9]: 37.6 ± 11.3 ng/g
- concentration at 24 h [2, 9]: 2.76 ± 2.12 ng/g
- concentration at 0.5 h [2, 10]: 120 ± 93.5 ng/g
- concentration at 1 h [2, 10]: 109 ± 35.4 ng/g
- concentration at 2 h [2, 10]: 46.5 ± 15.7 ng/g
- concentration at 4 h [2, 10]: 35.1 ± 4.71 ng/g
- concentration at 6 h [2, 10]: 31.4 ± 9.28 ng/g
- concentration at 24 h [2, 10]: 12.3 ± 18 ng/g
- concentration at 0.5 h [2, 11]: 120 ng/mL
- concentration at 1 h [2, 11]: 109 ng/mL
- concentration at 2 h [2, 11]: 46.5 ng/mL
- concentration at 4 h [2, 11]: 35.1 ng/mL
- concentration at 6 h [2, 11]: 31.4 ng/mL
- concentration at 24 h [2, 11]: 12.3 ng/mL
- concentration at 0.5 h [2, 12]: 26.9 ng/mL
- concentration at 1 h [2, 12]: 107 ng/mL
- concentration at 2 h [2, 12]: 334 ng/mL
- concentration at 4 h [2, 12]: 154 ng/mL
- concentration at 6 h [2, 12]: 37.6 ng/mL
- concentration at 24 h [2, 12]: 2.76 ng/mL
- AUC(0-t) [2, 13]: 988 ng·h/mL
- AUC(0-t) [2, 14]: 1290 ng·h/mL
- Cmax [2, 13]: 120 ng/mL
- Cmax [2, 14]: 334 ng/mL
- MRT [2, 13]: 12 h
- MRT [2, 14]: 4.03 h
- Tmax ([2]; male, Wistar, rat, po, 30 mg/kg, Tmax, Rapae oleum, single oral dose of extract 30 mg/kg): 2 h
- CBD levels in whole blood ([2]; oil (Rapae oleum)): 1.06 to 588.03 ng/mL
- time concentrations were detectable after administration ([2]; single oral dose of extract 30 mg/kg): up to 24 h
- CL [2, 15]: 7.75 L/h
- Tmax [2, 15]: 0.5 h
- Vd [2, 15]: 69.66 L
- CL [2, 16]: 5.85 L/h
- Vd [2, 16]: 28.29 L
- mean concentration over time ([3]; Brain/Cremophor, 0.5 h, single oral dose of extract 30 mg/kg): 274.994
- mean concentration over time ([3]; Brain/Cremophor, 1 h, single oral dose of extract 30 mg/kg): 213.491
- mean concentration over time ([3]; Brain/Cremophor, 2 h, single oral dose of extract 30 mg/kg): 81.1135
- mean concentration over time ([3]; Brain/Cremophor, 4 h, single oral dose of extract 30 mg/kg): 52.1185
- mean concentration over time ([3]; Brain/Cremophor, 6 h, single oral dose of extract 30 mg/kg): 57.7145
- mean concentration over time ([3]; Brain/Cremophor, 24 h, single oral dose of extract 30 mg/kg): 3.604
- mean concentration over time ([3]; Brain/Rapae oleum, 0.5 h, single oral dose of extract 30 mg/kg): 23.327
- mean concentration over time ([3]; Brain/Rapae oleum, 1 h, single oral dose of extract 30 mg/kg): 65.391
- mean concentration over time ([3]; Brain/Rapae oleum, 2 h, single oral dose of extract 30 mg/kg): 301.388
- mean concentration over time ([3]; Brain/Rapae oleum, 4 h, single oral dose of extract 30 mg/kg): 263.466
- mean concentration over time ([3]; Brain/Rapae oleum, 6 h, single oral dose of extract 30 mg/kg): 59.650
- mean concentration over time ([3]; Brain/Rapae oleum, 24 h, single oral dose of extract 30 mg/kg): 9.797
- Kp ([3]; male, Wistar, rat, brain / whole blood, po, 30 mg/kg, AUCbrain:AUC whole blood (AUC0–24 ratio), Cremophor, single oral dose of extract 30 mg/kg): 0.95
- Kp ([3]; male, Wistar, rat, brain / whole blood, po, 30 mg/kg, AUCbrain:AUC whole blood (AUC0–24 ratio), Rapae oleum, single oral dose of extract 30 mg/kg): 1.54
- concentration at 0.5 h ([3]; male, Wistar, rat, brain, oral, 30 mg/kg, Mean Concentration, Cremophor, 0.5 h, single oral dose of extract 30 mg/kg): 275 ± 104 ng/g
- concentration at 1 h ([3]; male, Wistar, rat, brain, oral, 30 mg/kg, Mean Concentration, Cremophor, 1 h, single oral dose of extract 30 mg/kg): 213 ± 66.1 ng/g
- concentration at 2 h ([3]; male, Wistar, rat, brain, oral, 30 mg/kg, Mean Concentration, Cremophor, 2 h, single oral dose of extract 30 mg/kg): 81.1 ± 23.4 ng/g
- concentration at 4 h ([3]; male, Wistar, rat, brain, oral, 30 mg/kg, Mean Concentration, Cremophor, 4 h, single oral dose of extract 30 mg/kg): 52.1 ± 12.2 ng/g
- concentration at 6 h ([3]; male, Wistar, rat, brain, oral, 30 mg/kg, Mean Concentration, Cremophor, 6 h, single oral dose of extract 30 mg/kg): 57.7 ± 25.9 ng/g
- concentration at 24 h ([3]; male, Wistar, rat, brain, oral, 30 mg/kg, Mean Concentration, Cremophor, 24 h, single oral dose of extract 30 mg/kg): 3.6 ± 0.493 ng/g
- Tmax ([3]; male, Wistar, rat, brain, po, 30 mg/kg): 2 h
- AUC(0-t) [3, 17]: 943 ng·h/mL
- AUC(0-t) [3, 18]: 1990 ng·h/mL
- Cmax [3, 17]: 275 ng/g
- Cmax [3, 18]: 301 ng/g
- MRT [3, 17]: 6.19 h
- MRT [3, 18]: 7.76 h
- Kp ([3]; male, Wistar, rat, brain/whole blood, oral, 30 mg/kg, brain/whole-blood ratio, Cremophor, present study): 2.29
- brain peak CBD concentration [4]: 1.3 µg/g
- peak whole-blood concentration [4]: ~2 µg/mL
- whole-blood concentration [5]: about 5 ng/mL
- brain peak CBD concentration [6]: 8.6 µg/g
- peak whole-blood concentration [6]: ~2 µg/mL
- peak concentration in the blood ([7]; oral CBD 120 mg/kg in Cremophor, at 2 h): 2 µg/mL
- peak concentration in the blood ([7]; oral CBD 120 mg/kg in Solutol, at 6 h): 3.2 µg/mL

— PMC10304291, “THC-Reduced Cannabis sativa L.—How Does the Solvent Determine the Bioavailability of Cannabinoids Given Orally?” (Nutrients, 2023)
